Experimental data as given in ChEMBL document CHEMBL1201862, “PubChem BioAssay data set” (2004).
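These data come from cells grown in 96-well plates and exposed to compound for 48 hours at five concentrations. The concentration for 50% growth inhibition is given as GI50.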 Calls of active or inactive are those of the source. Cut-off read from the data, not from the text of the source: active = GI50 up to about 1.1 µM and inactive = higher.

Experiments:
Assay in all cases: NCI-60 cell line screen, 48 h
HCT-116 = system: HCT-116
UACC-62 = system: UACC-62
A549 = system: A549
NCI-H226 = system: NCI-H226
K562 = system: K562
RPMI-8226 = system: RPMI-8226
M14 = system: M14
IGROV-1 = system: IGROV-1
A498 = system: A498
OVCAR-3 = system: OVCAR-3
NCI-H23 = system: NCI-H23
UACC-257 = system: UACC-257
NCI/ADR-RES = system: NCI/ADR-RES
ACHN = system: ACHN
EKVX = system: EKVX
Malme-3M = system: Malme-3M
SK-MEL-5 = system: SK-MEL-5
SF-268 = system: SF-268
SNB-75 = system: SNB-75
PC-3 = system: PC-3

Structure (SMILES)	GI50 (HCT-116)	GI50 (UACC-62)	GI50 (A549)	GI50 (NCI-H226)	GI50 (K562)	GI50 (RPMI-8226)	GI50 (M14)	GI50 (IGROV-1)	GI50 (A498)	GI50 (OVCAR-3)	GI50 (NCI-H23)	GI50 (UACC-257)	GI50 (NCI/ADR-RES)	GI50 (ACHN)	GI50 (EKVX)	GI50 (Malme-3M)	GI50 (SK-MEL-5)	GI50 (SF-268)	GI50 (SNB-75)	GI50 (PC-3)
Cc1cc(-c2cc(C(C)(C)C)c(O)c(C(C)(C)C)c2)c(C)cc1-c1cc(C(C)(C)C)c(O)c(C(C)(C)C)c1	> 100 µM (inactive)	> 100 µM (inactive)	> 100 µM (inactive)	> 100 µM (inactive)	> 100 µM (inactive)	> 100 µM (inactive)	> 100 µM (inactive)	> 100 µM (inactive)	27.3 µM (inactive)	> 100 µM (inactive)	> 100 µM (inactive)	> 100 µM (inactive)	> 100 µM (inactive)	> 100 µM (inactive)	> 100 µM (inactive)	> 100 µM (inactive)	> 100 µM (inactive)	> 100 µM (inactive)	> 100 µM (inactive)	> 100 µM (inactive)
COC(COC(N)=O)C1=C(N2CC2)C(=O)C(C)=C(N2CC2)C1=O (centres undefined) [CARBOQUONE]	0.0284 µM (active)	< 0.0156 µM (active)	0.0185 µM (active)	0.0719 µM (active)	0.0352 µM (active)	0.117 µM (active)	0.0395 µM (active)	0.197 µM (active)	0.0904 µM (active)	0.0607 µM (active)	< 0.0148 µM (active)	0.126 µM (active)	0.0241 µM (active)	< 0.01 µM (active)	0.47 µM (active)	0.0692 µM (active)	0.046 µM (active)	< 0.016 µM (active)	0.0246 µM (active)	0.213 µM (active)
COc1cc(C2c3cc4c(c(O)c3C(=O)C3CCC(=O)N32)OCO4)cc(OC)c1OC (centres undefined)	56.4 µM (inactive)	30.1 µM (inactive)	18.2 µM (inactive)	38.3 µM (inactive)	34.9 µM (inactive)	92.7 µM (inactive)	42.1 µM (inactive)	61.9 µM (inactive)	39.9 µM (inactive)	68.1 µM (inactive)	> 100 µM (inactive)	> 100 µM (inactive)	89.1 µM (inactive)	75 µM (inactive)	> 100 µM (inactive)	39.9 µM (inactive)	23.9 µM (inactive)	57 µM (inactive)	30 µM (inactive)	38.8 µM (inactive)
O=c1onc2n1-c1cc(Cl)ccc1C(=S)N1CSCC21 (centres undefined)	> 100 µM (inactive)	> 100 µM (inactive)	> 100 µM (inactive)	> 100 µM (inactive)	26.7 µM (inactive)	> 100 µM (inactive)	> 100 µM (inactive)	> 100 µM (inactive)	> 100 µM (inactive)	> 100 µM (inactive)	–	> 100 µM (inactive)	> 100 µM (inactive)	> 100 µM (inactive)	> 100 µM (inactive)	> 100 µM (inactive)	> 100 µM (inactive)	> 100 µM (inactive)	31.3 µM (inactive)	> 100 µM (inactive)
CC1=NN(c2nc(N)nc(/C(C#N)=C\c3ccc(-c4ccc([N+](=O)[O-])cc4)o3)n2)C(C)(C)C1	> 100 µM (inactive)	> 100 µM (inactive)	> 100 µM (inactive)	> 100 µM (inactive)	> 100 µM (inactive)	> 100 µM (inactive)	> 100 µM (inactive)	> 100 µM (inactive)	> 100 µM (inactive)	> 100 µM (inactive)	> 100 µM (inactive)	> 100 µM (inactive)	> 100 µM (inactive)	> 100 µM (inactive)	> 100 µM (inactive)	> 100 µM (inactive)	> 100 µM (inactive)	65.5 µM (inactive)	14.2 µM (inactive)	> 100 µM (inactive)
